The test system of one experiment is A549. As to the kind of experiment: Cytotoxicity against human A549 cells assessed as reduction in cell viability measured after 48 hrs by MTT assay. The format is functional, cell-based. As to conditions: A549, 48 h.
In another experiment the test system is B16. As to the kind of experiment: Cytotoxicity against mouse B16 cells assessed as reduction in cell viability measured after 96 hrs by microplate reader based MTT assay. Format: functional.
A further experiment deals with HEp-2. Briefly: Cytotoxicity against human HEp-2 cells assessed as reduction in cell growth. The format is functional, cell-based.
The subject of another experiment is KB. Briefly: Cytotoxicity against human KB cells assessed as cell growth inhibition incubated for 48 hrs by MTT assay. Format: functional, cell-based.

This is an account of results in ChEMBL document CHEMBL5325510, “Vincamine, from an antioxidant and a cerebral vasodilator to its anticancer potential” (Bioorg Med Chem, 2023).

Each structure is given as a SMILES string.

As to `CC[C@]12CCCN3CCc4c(n(c5ccccc45)[C@@](O)(C(=O)OC)C1)[C@@H]32` [VINCAMINE], the 50% inhibitory concentration (IC50) is 310 µM in the experiment with A549, 68.9 µM in the experiment with B16, 274 µM with HEp-2 and 232 µM in the experiment with KB.
